From publication PMC3510438, “The transmembrane tyrosines Y56, Y91 and Y167 play important roles in determining the affinity and transport rate of the rabbit proton-coupled peptide transporter PepT1” (The International Journal of Biochemistry & Cell Biology, 2009) come the findings set out here.

The target of one assay is T1, Y91F-rPepT1 (Oryctolagus cuniculus, UniProt P36836, Y91F).
T1 construct: expressed in transfected cells; host or cells: Xenopus laevis oocytes injected with cRNA
T1 sequence (P36836 1-707 Y91F): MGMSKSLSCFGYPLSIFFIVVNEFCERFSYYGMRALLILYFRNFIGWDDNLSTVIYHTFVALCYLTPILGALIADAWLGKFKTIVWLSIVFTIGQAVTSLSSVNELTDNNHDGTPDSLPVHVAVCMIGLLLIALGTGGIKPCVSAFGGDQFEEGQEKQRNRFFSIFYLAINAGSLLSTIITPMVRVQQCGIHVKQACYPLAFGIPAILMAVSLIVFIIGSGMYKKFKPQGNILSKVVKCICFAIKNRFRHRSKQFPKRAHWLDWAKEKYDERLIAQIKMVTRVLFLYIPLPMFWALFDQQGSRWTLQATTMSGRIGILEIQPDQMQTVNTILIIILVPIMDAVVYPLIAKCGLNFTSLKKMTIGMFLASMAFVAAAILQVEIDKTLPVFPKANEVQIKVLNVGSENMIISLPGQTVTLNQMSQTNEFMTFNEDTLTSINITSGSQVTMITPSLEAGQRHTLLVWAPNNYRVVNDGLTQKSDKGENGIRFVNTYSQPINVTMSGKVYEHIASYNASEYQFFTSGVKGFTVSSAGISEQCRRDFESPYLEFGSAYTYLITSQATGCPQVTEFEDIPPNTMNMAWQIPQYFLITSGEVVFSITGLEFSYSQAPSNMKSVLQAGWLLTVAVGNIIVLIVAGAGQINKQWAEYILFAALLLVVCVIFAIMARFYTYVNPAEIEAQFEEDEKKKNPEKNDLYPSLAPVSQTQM
In words: Competition of [3H]-D-Phe-L-Gln uptake into Xenopus oocytes, Ki. The settings on record: against 0.4 μM [3H]-D-Phe-L-Gln uptake. The class given is cell-based, rabbit. On the procedure:
(§1) rPepT1 constructs were linearised with XbaI (New England Biolabs, UK) and cRNA generated by in vitro transcription (T7 mMessage mMachine, Ambion, Cambridgeshire, UK). Xenopus laevis oocytes were obtained under MS222 anaesthesia (0.2%, w/v) in accordance with the UK Animals (Scientific Procedures) Act, 1986, and maintained at 18 °C in modified Barth's medium (88 mM NaCl, 1 mM KCl, 0.82 mM MgSO4, 2.4 mM NaHCO3, 0.42 mM CaCl2, 10 mM Hepes, 5 mM sodium pyruvate, 50 μg ml^−1 gentamicin (Fluka, Poole, UK), adjusted to pH 7.6 with 1 M NaOH). Transport measurements were performed at least 72 h after micro-injection of oocytes with 27nl cRNA (1 μg/μl), with medium changed daily.
(§2) Uptake of [^3H]-D-Phe-L-Gln (17.4 Ci/mmole, custom synthesised, Cambridge Research Biochemicals, Stockton-on-Tees, UK) was performed as previously described ([Meredith, 2004]). Briefly, 5 oocytes were incubated in 100 μl of uptake medium (95 mM NaCl, 2 mM KCl, 1 mM CaCl2, 0.42 mM MgCl2, 10 mM Tris/Hepes pH 7.4 or Tris/Mes pH 5.5) with tracer (0.4 μM) [^3H]-D-Phe-L-Gln. After incubation, the oocytes were washed sequentially five times in 1 ml of ice-cold 120 mM NaCl solution, lysed individually with 100 μl 2% (w/v) SDS and liquid scintillation counted. As a control non-injected oocytes were also incubated in uptake medium with D-Phe-L-Gln as above.
The affinity of wild-type and mutant rPepT1 transporters were assessed by competition studies with 0.4 μM [^3H]-D-Phe-L-Gln and Gly-L-Gln present in the uptake medium in concentrations from 0 to 2 mM using the protocol above, and the Ki calculated using the method of [Deves and Boyd (1989)].

A further assay concerns the target T2, wild-type rPepT1 (Oryctolagus cuniculus, UniProt P36836).
T2 construct: expressed in transfected cells; host or cells: Xenopus laevis oocytes injected with cRNA
T2 sequence (P36836 1-707): T1 sequence (P36836 1-707 Y91F) with F91Y
In words: Uptake of tracer [3H]-D-Phe-L-Gln into Xenopus oocytes. Type of assay: cell-based, rabbit. The settings on record: 0.4 μM tracer; pHout 5.5; 1 h; non-injected control subtracted. How it is done: as §1, §2

Residue numbers refer to the chain shown, from its start. Where a SMILES comes first, the peptide text is derived from it.

As a reminder, the Ki is the dissociation constant of the complex between target and ligand, obtained from inhibition or displacement. Low values mean higher affinity, high ones lower affinity. In the case of `NCC(=O)N[C@@H](CCC(N)=O)C(=O)O` [Gly-L-Gln] (H-Gly-Gln-OH), the Ki was 1400 ± 310 µM at Y91F-rPepT1 (pHout 5.5) and 460 ± 90 µM on Y91F-rPepT1 (pHout 7.4).

Turning to [^3H]-D-Phe-L-Gln, the uptake on wild-type rPepT1 is listed as 342 ± 37 fmol peptide/(oocyte h).
